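Following 48 hours of exposure in 96-well plates, responses at five concentrations were used to interpolate endpoints linearly. GI50 marks 50% less growth.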 Active and inactive are the calls of the source. No stated cut-off is given here; in the data, active = GI50 up to about 1.1 µM and inactive = higher.
Experiments:
Test in all cases: DTP human tumour cell line panel, 48 h
[1] = test system: A498
[2] = test system: MDA-MB-231
[3] = test system: BT-549
[4] = test system: SF-295
[5] = test system: SK-MEL-28
[6] = test system: MCF7
[7] = test system: Hs-578T
[8] = test system: MDA-N
[9] = test system: HL-60
[10] = test system: NCI-H226
[11] = test system: CAKI-1
[12] = test system: OVCAR-3
[13] = test system: OVCAR-5
[14] = test system: HOP-92
[15] = test system: RXF 393
[16] = test system: HT-29
[17] = test system: T47D
[18] = test system: HCT-116
[19] = test system: Malme-3M
[20] = test system: RPMI-8226
[21] = test system: SK-MEL-2
[22] = test system: NCI-H23
[23] = test system: CCRF-CEM
[24] = test system: EKVX
[25] = test system: ACHN
[26] = test system: HOP-62
[27] = test system: SW-620
[28] = test system: SR
[29] = test system: HCT-15
[30] = test system: DU-145
[31] = test system: UACC-257
[32] = test system: IGROV-1
[33] = test system: NCI-H522
[34] = test system: LOX IMVI
[35] = test system: MDA-MB-435
[36] = test system: SNB-19
[37] = test system: 786-0
[38] = test system: PC-3
[39] = test system: KM12
[40] = test system: NCI/ADR-RES
[41] = test system: SK-MEL-5
[42] = test system: UACC-62
[43] = test system: SN12C
[44] = test system: SF-268
[45] = test system: K562
[46] = test system: HCC 2998
[47] = test system: A549
[48] = test system: SF-539
[49] = test system: MOLT-4
[50] = test system: NCI-H460
[51] = test system: UO-31
[52] = test system: OVCAR-4
[53] = test system: U-251
[54] = test system: M14
[55] = test system: OVCAR-8
[56] = test system: COLO 205
[57] = test system: SK-OV-3
[58] = test system: SNB-75

Compound: CCOC(=O)CNC(=O)C(CSC(=O)N(O)c1ccc(Br)cc1)NC(=O)CCC(N)C(=O)OCC (centres undefined)
- GI50 [1]: > 50 µM (inactive)
- GI50 [2]: > 50 µM (inactive)
- GI50 [3]: > 50 µM (inactive)
- GI50 [4]: > 50 µM (inactive)
- GI50 [5]: > 50 µM (inactive)
- GI50 [6]: > 50 µM (inactive)
- GI50 [7]: > 50 µM (inactive)
- GI50 [8]: > 50 µM (inactive)
- GI50 [9]: 0.005 µM (active)
- GI50 [10]: > 50 µM (inactive)
- GI50 [11]: > 50 µM (inactive)
- GI50 [12]: > 50 µM (inactive)
- GI50 [13]: > 50 µM (inactive)
- GI50 [14]: 8.45 µM (inactive)
- GI50 [15]: > 50 µM (inactive)
- GI50 [16]: > 50 µM (inactive)
- GI50 [17]: > 50 µM (inactive)
- GI50 [18]: > 50 µM (inactive)
- GI50 [19]: > 50 µM (inactive)
- GI50 [20]: 21 µM (inactive)
- GI50 [21]: > 50 µM (inactive)
- GI50 [22]: > 50 µM (inactive)
- GI50 [23]: 27.4 µM (inactive)
- GI50 [24]: > 50 µM (inactive)
- GI50 [25]: > 50 µM (inactive)
- GI50 [26]: > 50 µM (inactive)
- GI50 [27]: 45.1 µM (inactive)
- GI50 [28]: > 50 µM (inactive)
- GI50 [29]: > 50 µM
- GI50 [30]: > 50 µM (inactive)
- GI50 [31]: > 50 µM (inactive)
- GI50 [32]: > 50 µM (inactive)
- GI50 [33]: > 50 µM (inactive)
- GI50 [34]: 40.1 µM (inactive)
- GI50 [35]: 24.4 µM (inactive)
- GI50 [36]: > 50 µM (inactive)
- GI50 [37]: > 50 µM (inactive)
- GI50 [38]: > 50 µM (inactive)
- GI50 [39]: 45.8 µM (inactive)
- GI50 [40]: > 50 µM (inactive)
- GI50 [41]: > 50 µM (inactive)
- GI50 [42]: > 50 µM (inactive)
- GI50 [43]: > 50 µM (inactive)
- GI50 [44]: > 50 µM (inactive)
- GI50 [45]: 41.9 µM (inactive)
- GI50 [46]: > 50 µM (inactive)
- GI50 [47]: > 50 µM (inactive)
- GI50 [48]: > 50 µM (inactive)
- GI50 [49]: 2.96 µM (inactive)
- GI50 [50]: > 50 µM (inactive)
- GI50 [51]: > 50 µM (inactive)
- GI50 [52]: > 50 µM (inactive)
- GI50 [53]: > 50 µM (inactive)
- GI50 [54]: > 50 µM (inactive)
- GI50 [55]: > 50 µM (inactive)
- GI50 [56]: > 50 µM (inactive)
- GI50 [57]: > 50 µM (inactive)

Compound: O=C1OC(C2OC(=O)c3cc(O)c(O)c(O)c3-c3c(O)c(O)c4oc(=O)c5c(c(O)c(O)c6oc(=O)c3c4c65)-c3c(cc(O)c(O)c3O)C(=O)OCC2O)C2OC(=O)c3c(c(O)c(O)c(O)c3[C@H]2O)-c2c1cc(O)c(O)c2O (some centres undefined)
- GI50 [1]: > 100 µM (inactive)
- GI50 [2]: 13.5 µM (inactive)
- GI50 [3]: 24 µM (inactive)
- GI50 [4]: 16.6 µM (inactive)
- GI50 [5]: 98.2 µM (inactive)
- GI50 [6]: 6.05 µM (inactive)
- GI50 [7]: 38.6 µM (inactive)
- GI50 [8]: 21.2 µM (inactive)
- GI50 [9]: 13.7 µM (inactive)
- GI50 [10]: 16.8 µM (inactive)
- GI50 [11]: 10.3 µM (inactive)
- GI50 [12]: 24.4 µM (inactive)
- GI50 [13]: 19.7 µM (inactive)
- GI50 [14]: 18.3 µM (inactive)
- GI50 [15]: 26.5 µM (inactive)
- GI50 [16]: 13.3 µM (inactive)
- GI50 [17]: 26.7 µM (inactive)
- GI50 [18]: 17.3 µM (inactive)
- GI50 [19]: 31.6 µM (inactive)
- GI50 [20]: 28.5 µM (inactive)
- GI50 [21]: 31.6 µM (inactive)
- GI50 [22]: 16.6 µM (inactive)
- GI50 [23]: 10.9 µM (inactive)
- GI50 [24]: 13 µM (inactive)
- GI50 [25]: 24.7 µM (inactive)
- GI50 [26]: 33.5 µM (inactive)
- GI50 [27]: 19 µM (inactive)
- GI50 [28]: 15 µM (inactive)
- GI50 [29]: 13.2 µM
- GI50 [30]: 30.3 µM (inactive)
- GI50 [31]: 32 µM (inactive)
- GI50 [32]: 25.6 µM (inactive)
- GI50 [33]: 17.1 µM (inactive)
- GI50 [34]: 11.5 µM (inactive)
- GI50 [35]: 14 µM (inactive)
- GI50 [36]: 96.8 µM (inactive)
- GI50 [37]: 18.2 µM (inactive)
- GI50 [38]: 36.4 µM (inactive)
- GI50 [39]: 15.2 µM (inactive)
- GI50 [40]: 21.8 µM (inactive)
- GI50 [41]: 13.9 µM (inactive)
- GI50 [42]: 22.9 µM (inactive)
- GI50 [43]: 15.9 µM (inactive)
- GI50 [44]: 24.7 µM (inactive)
- GI50 [45]: 19.2 µM (inactive)
- GI50 [46]: 43.6 µM (inactive)
- GI50 [47]: 20.2 µM (inactive)
- GI50 [49]: 22.6 µM (inactive)
- GI50 [50]: 24.9 µM (inactive)
- GI50 [51]: 16.4 µM (inactive)
- GI50 [52]: 16.1 µM (inactive)
- GI50 [53]: 20.9 µM (inactive)
- GI50 [54]: 16.4 µM (inactive)
- GI50 [55]: 20.2 µM (inactive)
- GI50 [56]: 14.8 µM (inactive)
- GI50 [58]: 16.9 µM (inactive)
- GI50 [57]: 59.7 µM (inactive)

— ChEMBL document CHEMBL1201862, “PubChem BioAssay data set” (2004)
